Patent US9493435B2, “IRE-1α inhibitors” (MannKing Corporation, priority 2009, dated 2016)
Structures can show the parent of a compound that is named as a salt.

System: IRE-1α-mediated XBP-1 splicing in human myeloma MM.1s cells
Assay: Cellular XBP-1 splicing assay in myeloma cells (RT-PCR)
Format: cell-based
Details: Homo sapiens, MM1.S; average EC50, endogenous XBP-1 splicing in myeloma cells, DTT stress
Method: After an additional 45 minutes (2 hours total) with compound and DTT, the cells are harvested with TRIZOL® (a mono-phasic solution of phenol and guanidine isothiocyanate), and total RNA is prepared as directed by the manufacturer (Invitrogen). Human XBP-1 is amplified by RT-PCR with the following primers, which flank the 26 base unconventional intron excised by IRE-1α:
RT-PCR of unstressed (U) cells then generates the upper band. When cells are stressed (S) with the endoplasmic reticulum (ER) stressing agent DTT, IRE-1α is activated due to accumulating unfolded protein and the resulting RT-PCR product is 26 base pairs shorter.
Compounds which pass specificity assays are assayed for cellular EC50 using endogenous XBP-1 splicing in myeloma cells. XBP-1 is regulated through the excision of a 26 nucleotide intron from the XBP-1 mRNA by the highly specific endoribonuclease activity of IRE-1α. […] This splicing event is used to measure IRE-1α activity on XBP-1 mRNA in cells and tissues.
Briefly, compounds are incubated in the presence or absence of an ER stress agent (e.g., DTT), and the ratio of XBP-1u (unspliced) to XBP-1s (spliced) is quantified by RT-PCR.

Point of comparison: `O=Cc1c(O)ccc2cc(/C=C/C(=O)O)ccc12` [Compound 23], EC50 10 µM. Against it:
- CN1CCN(C(=O)c2coc(-c3ccc4c(C=O)c(O)ccc4c3)n2)CC1 [Compound 76] — lower, < 10 µM
- CCN(CC)C(=O)c1cccc(-c2ccc3c(C=O)c(O)ccc3c2)n1 [Compound 7] — the same, 10 µM
- CN1CCN(C(=O)c2cnc(-c3ccc4c(C=O)c(O)ccc4c3)s2)CC1 [Compound 61] — lower, < 10 µM
- CNC(=O)c1cccc(-c2ccc3c(C=O)c(O)ccc3c2)c1 [Compound 8] — lower, < 10 µM
- CNC1CCN(c2ccc3c(C=O)c(O)ccc3c2)C1 (centres unmarked) [Compound 122] — lower, < 10 µM
- CN(C)C1CCN(c2ccc3c(C=O)c(O)ccc3c2)CC1 [Compound 85] — lower, < 10 µM
- Cc1nc(-c2ccc3c(C=O)c(O)ccc3c2)sc1C(=O)NCCN1CCOCC1 [Compound 142] — lower, < 10 µM
- CN1CCN(c2ccc3c(C=O)c(O)ccc3c2)CC1 [Compound 58, 2-Hydroxy-6-(4-methyl-piperazin-1-yl)-naphthalene-1-carbaldehyde hydrochloride] — lower, < 10 µM
- O=Cc1c(O)ccc2cc(N3CCN(Cc4ccccn4)CC3)ccc12 [Compound 96, 2-Hydroxy-6-(4-pyridin-2-ylmethyl-piperazin-1-yl)-naphthalene-1-carbaldehyde] — higher, > 10 µM
- O=Cc1c(O)ccc2cc(-c3ccc(C(=O)N4CC5CC4CN5)s3)ccc12 (centres unmarked) [Compound 75] — lower, < 10 µM
- CN1CCN(C(=O)C2CCN(c3ccc4ccc(O)c(C=O)c4c3)C2)CC1 (centres unmarked) [Compound 150] — higher, > 10 µM
- CN(Cc1ccccc1)C1CCN(c2ccc3c(C=O)c(O)ccc3c2)C1 (centres unmarked) [Compound 146] — higher, > 10 µM
- O=Cc1c(O)ccc2cc(-c3ccc(C(=O)NCCN4CCOCC4)nc3)ccc12 [Compound 126] — lower, < 10 µM
- O=Cc1c(O)ccc2cc(/C=C/C(=O)N3CCOCC3)ccc12 [Compound 32] — lower, < 10 µM
- O=Cc1c(O)ccc2cc(N3CCN(c4cccnc4)CC3)ccc12 [Compound 103] — higher, > 10 µM
- O=Cc1c(O)ccc2cc(-c3cc(C(=O)N4CCOCC4)ccc3Cl)ccc12 [Compound 24] — higher, > 10 µM
- O=Cc1c(O)ccc2cc(N3CCN(c4ccccn4)CC3)ccc12 [Compound 81] — higher, > 10 µM
- O=Cc1c(O)ccc2cc(-c3ccc(C(=O)NCCN4CCOCC4)cc3)ccc12 [Compound 139] — lower, < 10 µM
- CCN(CC)C(=O)c1ccc(-c2ccc3c(C=O)c(O)ccc3c2)cc1 [Compound 2] — lower, < 10 µM
- CC(=O)N1CCN(c2ccc3c(C=O)c(O)ccc3c2)CC1 [Compound 83] — higher, > 10 µM
- O=Cc1c(O)ccc2cc(OCC(=O)O)ccc12 [Compound 178] — higher, > 10 µM
- CN1CCC(NC(=O)c2ccc(-c3ccc4c(C=O)c(O)ccc4c3)s2)CC1 [Compound 38] — lower, < 10 µM
- O=Cc1c(O)ccc2cc(-c3ccc(C(=O)NCC4CCCCN4)o3)ccc12 (centres unmarked) [Compound 77] — lower, < 10 µM
- CN(C)C(=O)c1ccc(Cl)c(-c2ccc3c(C=O)c(O)ccc3c2)c1 [Compound 26] — higher, > 10 µM
- CN1CCN(C2CCN(c3ccc4ccc(O)c(C=O)c4c3)CC2)CC1 [Compound 89] — higher, > 10 µM
- O=Cc1c(O)ccc2cc(-c3ccc(C(=O)N4CCCC4)cc3)ccc12 [Compound 3] — lower, < 10 µM
- CN1CCN(C2CCN(c3ccc4c(C=O)c(O)ccc4c3)C2)CC1 (centres unmarked) [Compound 118] — lower, < 10 µM

Molecular target: human IRE-1α (GST-IRE-1α) (Homo sapiens (Human), UniProt O75460)
Assay: IRE-1α assay (cleavage of mini-XBP-1 mRNA stem-loop substrate)
Format: biochemical
Details: average IC50 for inhibition of IRE-1α in vitro
Method: A fusion protein comprising glutathione S transferase (GST) and human IRE-1α (GST-IRE-1α) obtained from a 500 ml baculovirus-infected insect cell culture can be used to measure IRE-1α activity in vitro. Five μl of a reaction mixture comprising 1× reaction buffer (5× reaction buffer is 100 mM Hepes pH 7.5, 250 mM KOAc, 2.5 mM MgCl2), 3 mM DTT, and 0.4% polyethylene glycol water is added to each well of 384 well plates. Twenty-five nanoliters of a 1 mM test compound solution are added to test wells. […] Negative control wells contain only reaction mixture and test compound. After spinning the plates at 1200 rpm for 30 seconds, 3 μl of an IRE-1α human mini-XBP-1 mRNA stem-loop substrate [NT] ID NO:1), labeled with the fluorescent dye Cy5 at the [NT] end, are added to each well of a control plate. The plates are again spun at 1200 rpm for 30 seconds. […] The plates are covered with lids and incubated for one hour at 30° C. The plates are then transferred to an […] microplate reader. Data is analyzed using data analysis software, and the percent activity of IRE-1α is calculated.

Sequence of human IRE-1α (GST-IRE-1α) (O75460 19-977): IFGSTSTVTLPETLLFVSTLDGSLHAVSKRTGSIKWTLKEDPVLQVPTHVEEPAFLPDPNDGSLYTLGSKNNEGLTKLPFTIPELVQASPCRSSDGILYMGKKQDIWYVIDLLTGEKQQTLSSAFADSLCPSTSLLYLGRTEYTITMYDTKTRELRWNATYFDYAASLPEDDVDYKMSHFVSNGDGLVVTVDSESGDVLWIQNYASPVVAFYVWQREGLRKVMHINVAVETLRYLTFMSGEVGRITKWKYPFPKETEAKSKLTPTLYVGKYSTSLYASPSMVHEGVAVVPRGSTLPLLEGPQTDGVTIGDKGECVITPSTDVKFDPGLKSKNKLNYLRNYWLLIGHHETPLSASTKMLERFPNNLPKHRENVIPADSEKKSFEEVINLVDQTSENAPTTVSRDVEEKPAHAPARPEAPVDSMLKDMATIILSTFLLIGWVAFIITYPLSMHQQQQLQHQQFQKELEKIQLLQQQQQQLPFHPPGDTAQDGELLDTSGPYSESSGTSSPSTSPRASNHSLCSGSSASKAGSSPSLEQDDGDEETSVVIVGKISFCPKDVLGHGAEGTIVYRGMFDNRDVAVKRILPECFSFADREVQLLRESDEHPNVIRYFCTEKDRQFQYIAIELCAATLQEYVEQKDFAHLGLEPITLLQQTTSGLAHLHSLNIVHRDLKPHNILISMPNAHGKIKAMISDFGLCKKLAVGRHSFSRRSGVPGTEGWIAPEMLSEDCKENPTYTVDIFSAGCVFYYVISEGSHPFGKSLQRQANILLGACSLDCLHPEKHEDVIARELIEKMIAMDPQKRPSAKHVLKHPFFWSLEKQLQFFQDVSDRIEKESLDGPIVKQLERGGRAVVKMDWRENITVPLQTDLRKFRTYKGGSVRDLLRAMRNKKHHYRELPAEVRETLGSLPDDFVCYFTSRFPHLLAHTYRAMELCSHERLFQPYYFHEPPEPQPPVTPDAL

Point of comparison: `O=Cc1c(O)ccc2cc(N3CCN(Cc4ccccn4)CC3)ccc12` [Compound 96, 2-Hydroxy-6-(4-pyridin-2-ylmethyl-piperazin-1-yl)-naphthalene-1-carbaldehyde], IC50 1000 nM. Against it:
- CN1CCN(C(=O)c2coc(-c3ccc4c(C=O)c(O)ccc4c3)n2)CC1 [Compound 76] — lower, < 1000 nM
- CCN(CC)C(=O)c1cccc(-c2ccc3c(C=O)c(O)ccc3c2)n1 [Compound 7] — lower, < 1000 nM
- CN1CCN(C(=O)c2cnc(-c3ccc4c(C=O)c(O)ccc4c3)s2)CC1 [Compound 61] — lower, < 100 nM
- CNC(=O)c1cccc(-c2ccc3c(C=O)c(O)ccc3c2)c1 [Compound 8] — lower, < 100 nM
- CNC1CCN(c2ccc3c(C=O)c(O)ccc3c2)C1 (centres unmarked) [Compound 122] — higher, > 1000 nM
- CN(C)C1CCN(c2ccc3c(C=O)c(O)ccc3c2)CC1 [Compound 85] — lower, < 10 nM
- Cc1nc(-c2ccc3c(C=O)c(O)ccc3c2)sc1C(=O)NCCN1CCOCC1 [Compound 142] — lower, < 100 nM
- O=Cc1c(O)ccc2cc(/C=C/C(=O)O)ccc12 [Compound 23] — lower, < 1000 nM
- CN1CCN(c2ccc3c(C=O)c(O)ccc3c2)CC1 [Compound 58, 2-Hydroxy-6-(4-methyl-piperazin-1-yl)-naphthalene-1-carbaldehyde hydrochloride] — higher, > 1000 nM
- O=Cc1c(O)ccc2cc(-c3ccc(C(=O)N4CC5CC4CN5)s3)ccc12 (centres unmarked) [Compound 75] — lower, < 100 nM
- CN1CCN(C(=O)C2CCN(c3ccc4ccc(O)c(C=O)c4c3)C2)CC1 (centres unmarked) [Compound 150] — higher, > 1000 nM
- CN(Cc1ccccc1)C1CCN(c2ccc3c(C=O)c(O)ccc3c2)C1 (centres unmarked) [Compound 146] — higher, > 1000 nM
- O=Cc1c(O)ccc2cc(-c3ccc(C(=O)NCCN4CCOCC4)nc3)ccc12 [Compound 126] — lower, < 100 nM
- O=Cc1c(O)ccc2cc(/C=C/C(=O)N3CCOCC3)ccc12 [Compound 32] — lower, < 100 nM
- O=Cc1c(O)ccc2cc(N3CCN(c4cccnc4)CC3)ccc12 [Compound 103] — higher, > 1000 nM
- O=Cc1c(O)ccc2cc(-c3cc(C(=O)N4CCOCC4)ccc3Cl)ccc12 [Compound 24] — higher, > 1000 nM
- O=Cc1c(O)ccc2cc(N3CCN(c4ccccn4)CC3)ccc12 [Compound 81] — higher, > 1000 nM
- O=Cc1c(O)ccc2cc(-c3ccc(C(=O)NCCN4CCOCC4)cc3)ccc12 [Compound 139] — lower, < 100 nM
- CCN(CC)C(=O)c1ccc(-c2ccc3c(C=O)c(O)ccc3c2)cc1 [Compound 2] — lower, < 1000 nM
- CC(=O)N1CCN(c2ccc3c(C=O)c(O)ccc3c2)CC1 [Compound 83] — lower, < 1000 nM
- O=Cc1c(O)ccc2cc(OCC(=O)O)ccc12 [Compound 178] — higher, > 1000 nM
- CN1CCC(NC(=O)c2ccc(-c3ccc4c(C=O)c(O)ccc4c3)s2)CC1 [Compound 38] — lower, < 1000 nM
- O=Cc1c(O)ccc2cc(-c3ccc(C(=O)NCC4CCCCN4)o3)ccc12 (centres unmarked) [Compound 77] — higher, > 1000 nM
- CS(=O)(=O)NC1CCN(c2ccc3c(C=O)c(O)ccc3c2)CC1 [Compound 175] — higher, > 1000 nM
- CN(C)C(=O)c1ccc(Cl)c(-c2ccc3c(C=O)c(O)ccc3c2)c1 [Compound 26] — higher, > 1000 nM
- CN1CCN(C2CCN(c3ccc4ccc(O)c(C=O)c4c3)CC2)CC1 [Compound 89] — higher, > 1000 nM
- O=Cc1c(O)ccc2cc(-c3ccc(C(=O)N4CCCC4)cc3)ccc12 [Compound 3] — lower, < 1000 nM
- CN1CCN(C2CCN(c3ccc4c(C=O)c(O)ccc4c3)C2)CC1 (centres unmarked) [Compound 118] — higher, > 1000 nM
- CN1CCN(C(=O)c2ccc(Cl)c(-c3ccc4c(C=O)c(O)ccc4c3)c2)CC1 [Compound 30] — lower, < 1000 nM
- CN(C1CCCN(c2ccc3c(C=O)c(O)ccc3c2)C1)S(C)(=O)=O (centres unmarked) [Compound 123] — lower, < 1000 nM
